The text below walks through data of patent US10155021B2, “Antimicrobial 4-oxoquinolizines” (Emergent Product Development Gaithersburg Inc., priority 2011, dated 2018).

Values after ≈ are worked out from the molar mass of the structure shown. Read-outs that look alike come from different tables or passages of the source. Where only a bound is given, the exact number is not on record here.

The test system of assay [1] is E. coli ATCC 25922. Kind of assay: MIC, selected panel of Gram-positive and Gram-negative strains (Example 5). Type of assay: cell-based, Escherichia coli.
The test system of assay [2] is A. baumannii ATCC 19606. Described as above. The format is cell-based, Acinetobacter baumannii.
Assay [3] concerns P. aeruginosa ATCC 27853. Described as above. Type of assay: cell-based.
For assay [4], the system named is S. aureus ATCC 43300 (MRSA, FQ-S). The assay is described as above. The format is cell-based, Staphylococcus aureus.
Assay [5] has as its system S. aureus BAA-1556 (USA300-Type MRSA, FQ-R). The assay is described as above. Type of assay: cell-based, Staphylococcus aureus.
The subject of assay [6] is S. aureus ATCC 25923. The description is as above. Type of assay: cell-based.
Assay [7] relates to B. thailandensis E264. Kind of assay: microbe, parasite or virus in culture. Conditions: for MIC: Burkholderia thailandensis, E264, read-out: MIC B. thailandensis E264. Type of assay: cell-based, Burkholderia thailandensis.
[8] abbreviates: Escherichia coli, ATCC25922, read-out: MIC E. coli ATCC 25922.
The mark [9] stands for this setting: Acinetobacter baumannii, ATCC19606, read-out: MIC A. baumannii ATCC 19606.
[10] abbreviates: Pseudomonas aeruginosa, ATCC27853, read-out: MIC P. aeruginosa ATCC 27853.
[11] abbreviates: Staphylococcus aureus, read-out: MIC S. aureus ATCC 43300 (MRSA, FQ-S).
The mark [12] stands for this setting: Staphylococcus aureus, read-out: MIC S. aureus BAA-1556 (USA300-Type MRSA, FQ-R).
The mark [13] stands for this setting: Staphylococcus aureus, ATCC25923, read-out: MIC S. aureus ATCC 25923.

Turning to `Cc1cc(-c2ccn3c(=O)c(C(=O)[O-])cc(C4CC4)c3c2C)ccn1.[K+]` [Compound 65K salt, potassium 8-(2-methylpyridin-4-yl)-1-cyclopropyl-9-methyl-4-oxo-4H-quinolizine-3-carboxylate], the MIC is 0.032 to 0.064 mg/L in assay [1] (setting [8]); 0.25 mg/L in assay [2] (setting [9]); 4 mg/L in assay [3] (setting [10]); 0.008 mg/L in assay [4] (setting [11]); 0.25 mg/L in assay [5] (setting [12]); 0.016 mg/L in assay [6] (setting [13]). For the same compound, the MIC in assay [7] came to 0.5 mg/L.

Consider `Cc1c(-c2ccc(C(=O)C(F)(F)F)cc2)ccn2c(=O)c(C(=O)O)cc(C3CC3)c12` [Compound 63, 8-[4-(2,2,2-trifluoroacetyl)phenyl]-1-cyclopropyl-9-methyl-4-oxo-quinolizine-3-carboxylic acid], for which the MIC in assay [1] (Escherichia coli, ATCC25922; read-out: MIC E. coli ATCC 25922) was 0.5 mg/L (≈ 1.2 µM); in assay [2] (Acinetobacter baumannii, ATCC19606; read-out: MIC A. baumannii ATCC 19606) it was 2 mg/L (≈ 4.82 µM); in assay [3] (Pseudomonas aeruginosa, ATCC27853; read-out: MIC P. aeruginosa ATCC 27853), greater than 8 mg/L; in assay [4] (Staphylococcus aureus; read-out: MIC S. aureus ATCC 43300 (MRSA, FQ-S)), 0.032 mg/L (≈ 0.077 µM); in assay [5] (Staphylococcus aureus; read-out: MIC S. aureus BAA-1556 (USA300-Type MRSA, FQ-R)), 1 mg/L (≈ 2.41 µM); in assay [6] (Staphylococcus aureus, ATCC25923; read-out: MIC S. aureus ATCC 25923), 0.064 mg/L (≈ 0.154 µM). For the same compound, the MIC in assay [7] amounted to 2 mg/L (≈ 4.82 µM).

As for `Cc1c(-c2ccc3[nH]cnc3c2)ccn2c(=O)c(C(=O)[O-])cc(C3CC3)c12.[K+]` [Compound 74K salt, potassium 8-(1H-benzo[d]imidazol-5-yl)-1-cyclopropyl-9-methyl-4-oxo-4H-quinolizine-3-carboxylate], the MIC in assay [1] (setting [8]) is 0.064 to 0.125 mg/L; in assay [2] (setting [9]), 0.5 mg/L; in assay [3] (setting [10]) it was 8 mg/L; in assay [4] (setting [11]), 0.016 mg/L; in assay [5] (setting [12]), 0.5 mg/L; in assay [6] (setting [13]), 0.016 mg/L. Also, in assay [7], the MIC worked out at 2 mg/L.

As for `Cc1c(-c2cn[nH]c2)ccn2c(=O)c(C(=O)[O-])cc(C3CC3)c12.[K+]` [Compound 67K salt, potassium 8-(1H-pyrazol-4-yl)-1-cyclopropyl-9-methyl-4-oxo-4H-quinolizine-3-carboxylate], the MIC in assay [1] (setting [8]) amounted to 0.032 mg/L; in assay [2] (setting [9]) it was 0.25 mg/L; in assay [3] (setting [10]), 2 mg/L; in assay [4] (setting [11]) it was 0.016 mg/L; in assay [5] (setting [12]), 1 mg/L; in assay [6] (setting [13]) it was 0.016 mg/L. Further, in assay [7], the MIC was found to be 0.25 mg/L.

Consider `Cc1c(-c2ccc(CN)cc2)c(F)cn2c(=O)c(C(=O)[O-])cc(C3CC3)c12.[K+]` [Compound 6K salt], for which the “MIC E. coli ATCC 25922” value in assay [1] was 0.064 to 0.125 mg/L. Besides, the “MIC A. baumannii ATCC 19606” value in assay [2] worked out at 1 mg/L. For the same compound, in assay [4], the “MIC S. aureus ATCC 43300 (MRSA, FQ-S)” value is 0,064 μg/mL. Also, in assay [5], the “MIC S. aureus BAA-1556 (USA300-Type MRSA, FQ-R)” value was 1 mg/L. The “MIC B. thailandensis E264” value in assay [7] came to 4 mg/L.

Take `Cc1c(-c2ccc(N)nc2)c(F)cn2c(=O)c(C(=O)[O-])cc(C3CC3)c12.[K+]` [Compound 60K salt, potassium 8-(6-aminopyridin-3-yl)-1-cyclopropyl-7-fluoro-9-methyl-4-oxo-4H-quinolizine-3-carboxylate]: the MIC in assay [1] (setting [8]) turned out to be 0.032 mg/L; in assay [2] (setting [9]) it was 0.064 mg/L; in assay [3] (setting [10]), 2 mg/L; in assay [5] (setting [12]) it was 0.125 mg/L; in assay [6] (setting [13]) it was 0.008 mg/L; in assay [7] it was 0.5 mg/L.

As to `Cc1c(-c2cnc3[nH]ccc3c2)ccn2c(=O)c(C(=O)[O-])cc(C3CC3)c12.[K+]` [Compound 85K salt, potassium 8-(1H-pyrrolo[2,3-b]pyridin-5-yl)-1-cyclopropyl-9-methyl-4-oxo-4H-quinolizine-3-carboxylate], the MIC in assay [1] (setting [8]) was 0.032 mg/L; in assay [2] (setting [9]) it was 0.064 mg/L; in assay [3] (setting [10]), 1 mg/L; in assay [4] (setting [11]), no more than 0.004 mg/L; in assay [5] (setting [12]), 0.064 to 0.125 mg/L; in assay [6] (setting [13]), no more than 0.004 mg/L. For the same compound, the MIC in assay [7] came out at 0.25 mg/L.

Take `Cc1c(-c2ccncc2)c(F)cn2c(=O)c(C(=O)[O-])cc(C3CC3)c12.[K+]` [Compound 59K salt, potassium 8-(pyridin-4-yl)-1-cyclopropyl-7-fluoro-9-methyl-4-oxo-4H-quinolizine-3-carboxylate]: the MIC was found to be 0.064 mg/L in assay [1] (setting [8]); 0.25 mg/L in assay [2] (setting [9]); 4 mg/L in assay [3] (setting [10]); 0.016 mg/L in assay [4] (setting [11]); 0.5 mg/L in assay [5] (setting [12]); 0.032 mg/L in assay [6] (setting [13]). Also, the MIC in assay [7] was found to be 0.5 mg/L.

Take `Cc1c(-c2ccc(N)c(CN)c2)ccn2c(=O)c(C(=O)[O-])cc(C3CC3)c12.[K+]` [Compound 76K salt, potassium 8-(4-amino-3-(aminomethyl)phenyl)-1-cyclopropyl-9-methyl-4-oxo-4H-quinolizine-3-carboxylate]: the MIC in assay [1] (setting [8]) is 0.032 mg/L; in assay [2] (setting [9]), 0.25 mg/L; in assay [3] (setting [10]) it was 1 mg/L; in assay [4] (setting [11]), 0.008 to 0.016 mg/L; in assay [5] (setting [12]) it was 0.25 mg/L; in assay [6] (setting [13]), 0.016 mg/L. Further, the MIC in assay [7] came out at 2 mg/L.

Turning to `Cc1c(-c2ccc3[nH]ncc3c2)c(F)cn2c(=O)c(C(=O)[O-])cc(C3CC3)c12.[K+]` [Compound 75K salt, potassium 8-(1H-indazol-5-yl)-1-cyclopropyl-7-fluoro-9-methyl-4-oxo-4H-quinolizine-3-carboxylate], the MIC is 0.032 mg/L in assay [1] (setting [8]); 0.064 mg/L in assay [2] (setting [9]); 1 mg/L in assay [3] (setting [10]); no more than 0.004 mg/L in assay [4] (setting [11]); 0.032 mg/L in assay [5] (setting [12]); no more than 0.004 mg/L in assay [6] (setting [13]). Moreover, the MIC in assay [7] came to 0.25 mg/L.

Consider `Cc1c(-c2ccc(O)nc2)ccn2c(=O)c(C(=O)[O-])cc(C3CC3)c12.[K+]` [Compound 55K salt, potassium 8-(6-hydroxypyridin-3-yl)-1-cyclopropyl-9-methyl-4-oxo-4H-quinolizine-3-carboxylate], for which the MIC in assay [1] (setting [8]) was 0.5 mg/L; in assay [2] (setting [9]) it was 8 mg/L; in assay [3] (setting [10]), greater than 8 mg/L; in assay [4] (setting [11]), 0.125 to 0.25 mg/L; in assay [5] (setting [12]) it was 8 mg/L; in assay [6] (setting [13]) it was 0.5 mg/L. The MIC in assay [7] came out at 8 mg/L.

`Cc1c(-c2ccc(O)c(CN)c2)ccn2c(=O)c(C(=O)[O-])cc(C3CC3)c12.[K+]` [Compound 72K salt, potassium 8-(3-(aminomethyl)-4-hydroxyphenyl)-1-cyclopropyl-9-methyl-4-oxo-4H-quinolizine-3-carboxylate]: the MIC is 0.008 to 0.016 mg/L in assay [1] (setting [8]); 0.25 mg/L in assay [2] (setting [9]); 0.5 mg/L in assay [3] (setting [10]); 0.008 to 0.016 mg/L in assay [4] (setting [11]); 0.25 mg/L in assay [5] (setting [12]); 0.008 mg/L in assay [6] (setting [13]). In assay [7], the MIC was found to be 2 mg/L.

With `Cc1c(-c2ccncc2F)ccn2c(=O)c(C(=O)[O-])cc(C3CC3)c12.[K+]` [Compound 58K salt, potassium 8-(3-fluoropyridin-4-yl)-1-cyclopropyl-9-methyl-4-oxo-4H-quinolizine-3-carboxylate], the MIC in assay [1] (setting [8]) was 0.25 mg/L; in assay [2] (setting [9]), 1 mg/L; in assay [3] (setting [10]), greater than 8 mg/L; in assay [4] (setting [11]), 0.064 mg/L; in assay [5] (setting [12]) it was 1 to 2 mg/L; in assay [6] (setting [13]), 0.064 mg/L. Besides, the MIC in assay [7] worked out at 1 mg/L.

Take `Cc1c(-c2ccc3cn[nH]c3c2)ccn2c(=O)c(C(=O)[O-])cc(C3CC3)c12.[K+]` [Compound 83K salt, potassium 8-(1H-indazol-6-yl)-1-cyclopropyl-9-methyl-4-oxo-4H-quinolizine-3-carboxylate]: the MIC was 0.016 mg/L in assay [1] (setting [8]); 0.032 mg/L in assay [2] (setting [9]); 0.5 mg/L in assay [3] (setting [10]); no more than 0.004 mg/L in assay [4] (setting [11]); 0.064 mg/L in assay [5] (setting [12]); no more than 0.004 mg/L in assay [6] (setting [13]).

As for `Cc1c(C2=CCNCC2)c(F)cn2c(=O)c(C(=O)[O-])cc(C3CC3)c12.[K+]` [Compound 62K salt, potassium 8-(1,2,3,6-tetrahydropyridin-4-yl)-1-cyclopropyl-7-fluoro-9-methyl-4-oxo-4H-quinolizine-3-carboxylate], the MIC is 0.032 mg/L in assay [1] (setting [8]); 1 mg/L in assay [2] (setting [9]); 1 mg/L in assay [3] (setting [10]); 4 mg/L in assay [5] (setting [12]); 0.25 mg/L in assay [6] (setting [13]); 2 mg/L in assay [7].

Take `Cc1cc(-c2ccn3c(=O)c(C(=O)[O-])cc(C4CC4)c3c2C)cnc1N.[K+]` [Compound 79K salt, potassium 8-(6-amino-5-methylpyridin-3-yl)-1-cyclopropyl-9-methyl-4-oxo-4H-quinolizine-3-carboxylate]: the MIC in assay [1] (setting [8]) was 0.016 mg/L; in assay [2] (setting [9]) it was 0.064 mg/L; in assay [3] (setting [10]), 2 mg/L; in assay [4] (setting [11]), no more than 0.004 mg/L; in assay [6] (setting [13]), no more than 0.004 mg/L; in assay [7] it was 0.5 mg/L.

Regarding `Cc1n[nH]c2ccc(-c3ccn4c(=O)c(C(=O)[O-])cc(C5CC5)c4c3C)cc12.[K+]` [Compound 80K salt, potassium 8-(3-methyl-1H-indazol-5-yl)-1-cyclopropyl-9-methyl-4-oxo-4H-quinolizine-3-carboxylate], the MIC is 0.064 mg/L in assay [1] (setting [8]); 0.25 mg/L in assay [2] (setting [9]); 4 mg/L in assay [3] (setting [10]); no more than 0.004 mg/L in assay [4] (setting [11]); no more than 0.004 mg/L in assay [6] (setting [13]); 1 mg/L in assay [7].
